pIC50: −log10 of the molar value. Activity calls are given as the source filed them. No cut-off for these calls is given here.
Experiments:
[1] = molecular target: NACHT, LRR and PYD domains-containing protein 3 (Mus musculus, UniProt Q8R4B8); experiment: Inhibition of NLRP3 inflammasome activation in LPS/nigericin-treated mouse J774A.1 cells assessed as decrease in IL-1beta level pretreated for 0.5 hrs followed by stimulation with nigericin for 1 hr by ELISA; assay type: cell-based, J774.A1
[2] = molecular target: NACHT, LRR and PYD domains-containing protein 3 (Mus musculus) (UniProt Q8R4B8); experiment: Inhibition of NLRP3 inflammasome activation in LPS/nigericin-treated mouse J774A.1 cells assessed as decrease in IL-1beta level pretreated for 0.5 hrs followed by stimulation with nigericin for 1 hr by Western blot analysis; assay type: cell-based; conditions: J774.A1, time 1.5 hrs
[3] = molecular target: NACHT, LRR and PYD domains-containing protein 3 (Mus musculus) (UniProt Q8R4B8); experiment: Inhibition of NLRP3 inflammasome activation in LPS/nigericin-treated mouse J774A.1 cells assessed as decrease in caspase-1 level pretreated for 0.5 hrs followed by stimulation with nigericin for 1 hr by Western blot analysis; assay type: cell-based; conditions: J774.A1, time 1.5 hrs
[4] = molecular target: NACHT, LRR and PYD domains-containing protein 3 (Mus musculus) (UniProt Q8R4B8); experiment: Inhibition of NLRP3 inflammasome activation in LPS/nigericin-treated mouse J774A.1 cells assessed as decrease in pyroptosis at 20 uM pretreated for 0.5 hrs followed by stimulation with nigericin for 1 hr by fluorescent microscopic analysis; assay type: cell-based; conditions: J774.A1, time 1.5 hrs

Chain of NACHT, LRR and PYD domains-containing protein 3 (Mus musculus) (Q8R4B8 whole entry, the tested form may be a part): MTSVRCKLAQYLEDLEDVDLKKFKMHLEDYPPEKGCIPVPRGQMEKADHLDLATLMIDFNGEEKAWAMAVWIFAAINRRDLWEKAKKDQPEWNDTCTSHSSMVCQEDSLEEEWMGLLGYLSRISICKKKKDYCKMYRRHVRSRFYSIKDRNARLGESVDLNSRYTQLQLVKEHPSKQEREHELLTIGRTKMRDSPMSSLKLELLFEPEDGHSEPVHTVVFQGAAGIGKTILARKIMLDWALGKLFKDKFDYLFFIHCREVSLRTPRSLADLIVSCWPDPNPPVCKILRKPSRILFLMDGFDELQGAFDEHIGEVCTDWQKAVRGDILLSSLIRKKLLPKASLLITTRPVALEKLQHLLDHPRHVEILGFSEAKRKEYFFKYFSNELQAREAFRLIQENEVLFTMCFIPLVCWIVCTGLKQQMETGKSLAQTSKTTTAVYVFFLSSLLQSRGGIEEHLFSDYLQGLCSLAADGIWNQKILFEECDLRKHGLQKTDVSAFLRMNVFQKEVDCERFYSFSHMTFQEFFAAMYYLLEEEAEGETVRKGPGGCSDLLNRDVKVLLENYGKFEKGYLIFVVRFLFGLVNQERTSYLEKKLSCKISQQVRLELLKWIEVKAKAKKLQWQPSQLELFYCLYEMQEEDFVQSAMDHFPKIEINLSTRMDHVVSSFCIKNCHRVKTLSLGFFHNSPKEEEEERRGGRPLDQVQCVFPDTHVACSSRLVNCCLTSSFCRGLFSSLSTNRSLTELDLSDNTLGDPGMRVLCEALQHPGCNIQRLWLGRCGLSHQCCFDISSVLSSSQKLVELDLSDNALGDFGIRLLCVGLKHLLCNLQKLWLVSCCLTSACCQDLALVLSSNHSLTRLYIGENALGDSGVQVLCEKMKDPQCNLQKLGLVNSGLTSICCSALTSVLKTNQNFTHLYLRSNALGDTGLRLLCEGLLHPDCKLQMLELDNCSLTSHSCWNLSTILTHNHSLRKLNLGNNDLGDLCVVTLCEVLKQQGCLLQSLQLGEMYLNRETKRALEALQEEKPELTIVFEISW
Chain of NACHT, LRR and PYD domains-containing protein 3 (Q8R4B8 whole entry, the tested form may be a part): as above

pIC50 [1]	inhibition [2]	inhibition [3]	inhibition [4]	Structure (SMILES)
7.64	–	–	–	CC(C)(O)c1coc(S(=O)(=O)NC(=O)Nc2c3c(cc4c2CCC4)CCC3)c1
5.26	Active	Active	Active	C=C1[C@@H](OC(C)=O)CC[C@]23C=C(C=O)[C@@H](OC(C)=O)C[C@@]2(C)[C@H](C)CC[C@@]13C

From ChEMBL document CHEMBL5126656, “Callintegers A and B, Unusual Tricyclo[4.4.0.09,10]tetradecane Clerodane Diterpenoids from Callicarpa integerrima with Inhibitory Effects on NLRP3 Inflammasome Activation” (J Nat Prod, 2022)
